Experimental data from US5407918A, “16-membered macrolide derivatives and process for producing the same” (Meiji Seika Kaisha, Ltd., priority 1992, dated 1995).
Values after ≈ are worked out from the molar mass of the structure shown. “Also recorded” adds a separate entry of the source.

Legend:
[1] = mice; EP-A-560,147; cited from earlier work
[2] = tested on: esterase; details: EP-A-560,147 derivatives; cited from earlier work
[3] = tested on: some bacteria belonging to the genus Streptococcus or Branhamella; details: cited from earlier work
[4] = tested on: Mycoplasma; assay: anti-Mycoplasma activity (summary in words); type: cell-based
Method: Antimicrobial activities of the compounds of the present invention were determined by measuring minimum inhibitory concentration (MIC). Minimum inhibitory concentration was determined by the agar plate dilution method in the following manner.
Test strains were subjected to seed culture using Sensitivity test broth (STB, Nissui Pharmaceutical) except that the strains belonging to the genus Streptococcus, Branhamella and Haemophilus were cultured on blood agar plate. A 5 μl portion of cell suspension of the test strains having about 10^6 CFU/ml was inoculated into Sensitivity disk agar (SDA, Nissui Pharmaceutical) supplemented with 5% horse blood and incubated at 37° C. for 20 hours. Then, MIC was measured. For comparison, MDM and leucomycin A7 (LM-A7) was also tested.

[5] = tested on: M. luteus
Method: Each test compound and 50 μl of a methanol solution (10,000 γ) were added to 950 μl of thawed rat plasma and the resulting mixture was incubated at 37° C. for 24 hours. After completion of the incubation, a 20 μl portion of the mixture was added to 980 μl of 0.05M phosphate buffer (pH 7.6). A 20 μl portion of the sample solution was used to measure antimicrobial activity against M. luteus.

[6] = concentration in serum after oral administration to mice, bioassay; type: in vivo, mice (Jcl:ICR)
Method: The compound (3) was mixed with a 0.2% solution of carboxymethylcellulose to give a concentration of 4 mg/ml and a 1 ml portion of the resulting emulsion was orally administered to 4-week-old male Jcl:ICR mice. Blood was collected from armpit of the mice 30, 60, 120, 240 and 360 minutes after the administration of the test compound (n=2). The collected blood was allowed to stand at room temperature for about 2 hours and centrifuged for 20 minutes with a centrifuge (KUBOTA KS-5000P) to obtain serum. To the serum was added an equivalent volume of 50% CH3 CN-50 mM phosphate (1:1 by volume) buffer (pH 7.0). The resulting mixture served as a serum sample. The concentration of the test compound in the serum sample was measured by the following bioassay method.
One hundred […] of the serum sample was poured into a hole made on a test plate containing 40 ml of MRAPJ medium (6 g/l peptone, 3 g/l yeast extract, 1.5 g/l meat extract, 1 g/l glucose and 15 g/l agar, pH 6.5) supplemented with a solution of M. Iuteus ATCC9341 (1%) and incubated at 32° C. for 18 hours and MIC was measured based on the calibration curve. MOM, MDM and RKM were also tested for comparison. […] Thus a long-pending problem of "low concentration in serum" of 16-membered macrolide antibiotics has been solved. […] Thus this compound is considered as a macrolide derivative showing new pharmacokinetics.
Further, a pharmacokinetics test on the compound (12) of the present invention is carried out in the same manner as described above. Namely, 200 mg/kg of the compound (12) is orally administered to mice and the concentration of this compound in the serum is determined by a bioassay method with the use of M. luteus as a test strain. […] The disadvantage of 16-membered ring macrolide antibiotics, which has been pointed out for a long time, has been thus overcome.

[7] = metabolism in plasma; type: in vitro ADME, rat; details: no free hydroxyl group in the neutral sugar moiety formed
Method: Each test compound and 50 μl of a methanol solution (10,000 γ) were added to 950 μl of thawed rat plasma and the resulting mixture was incubated at 37° C. for 24 hours. After completion of the incubation, a 20 μl portion of the mixture was added to 980 μl of 0.05M phosphate buffer (pH 7.6). A 20 μl portion of the sample solution was used to measure antimicrobial activity against M. luteus. Separately, the calibration curve was prepared by using a methanol solution containing each test compound. The starting activity of each compound in the plasma was referred to as 100%.

[8] = tested on: Gram-positive bacteria and Mycoplasma; assay: antimicrobial activity in vitro (summary in words); type: cell-based; details: from Table 1
Summary of the method: (§1)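 First, test organisms are precultured in Sensitivity test broth, or on blood agar for Branhamella. Next, 5 μl of suspension (about 10^6 CFU/ml) goes onto horse blood (5%) Sensitivity disk agar. Plates then sit at 37° C for 20 hours before MIC reading.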

[9] = tested on: E. coli NIHJ JC-2; assay: MIC, agar plate dilution method; type: cell-based; details: Escherichia coli, NIHJJC2, 20 h, read-out: Antimicrobial activity (MIC)
Summary of the method: as §1

[10] = tested on: M. pneumoniae Mac; assay: MIC, agar plate dilution method; type: cell-based; details: Mycoplasmoides pneumoniae, 20 h, read-out: Antimicrobial activity (MIC)
Summary of the method: as §1

[11] = tested on: S. Pyogenes Cook; assay: MIC, agar plate dilution method; type: cell-based; details: Streptococcus pyogenes, 37° C., 20 hours, read-out: Antimicrobial activity (MIC)
Summary of the method: (§2)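 Agar plate dilution on Sensitivity disk agar with 5% horse blood; 5 μl inoculum of about 10^6 CFU/ml, Branhamella precultured on blood agar. MIC read after 20 hours at 37° C.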

[12] = tested on: B. catarrhalis W-0500; assay: MIC, agar plate dilution method; type: cell-based; details: Moraxella catarrhalis, W0500, 37° C., 20 hours, read-out: Antimicrobial activity (MIC)
Summary of the method: as §1

[13] = tested on: S. Pneumoniae Type 1; assay: MIC, agar plate dilution method; type: cell-based; details: Streptococcus pneumoniae; S. Pneumoniae Type 1; 37° C., 20 hours; read-out: Antimicrobial activity (MIC)
Summary of the method: as §2

[14] = tested on: B. catarrhalis W-0506; assay: MIC, agar plate dilution method; type: cell-based; details: Moraxella catarrhalis, W0506, 37° C., 20 hours, read-out: Antimicrobial activity (MIC)
Summary of the method: as §1

[15] = tested on: S. aureus M126; assay: MIC, agar plate dilution method; type: cell-based; details: Staphylococcus aureus; S. aureus M126; 37° C., 20 hours; read-out: Antimicrobial activity (MIC)
Summary of the method: as §1

[16] = tested on: S. epidermidis ATCC14990; assay: MIC, agar plate dilution method; type: cell-based; details: Staphylococcus epidermidis, 37° C., 20 hours, read-out: Antimicrobial activity (MIC)
Summary of the method: as §1

[17] = tested on: E. faecalis W-73; assay: MIC, agar plate dilution method; type: cell-based; details: Enterococcus faecalis, W73; E. faecalis W-73; 37° C., 20 hours; read-out: Antimicrobial activity (MIC)
Summary of the method: as §1

[18] = tested on: H. influenzae 9334; assay: MIC, agar plate dilution method; type: cell-based; details: Haemophilus influenzae; H. influenzae 9334; 37° C., 20 hours; read-out: Antimicrobial activity (MIC)
Summary of the method: as §2

[19] = tested on: S. pneumoniae IP692; assay: MIC, agar plate dilution method; type: cell-based; details: Streptococcus pneumoniae; S. pneumoniae IP692; 37° C., 20 hours; read-out: Antimicrobial activity (MIC)
Summary of the method: as §2

[20] = tested on: S. aureus MS15027; assay: MIC, agar plate dilution method; type: cell-based; details: Staphylococcus aureus, 37° C., 20 hours, read-out: Antimicrobial activity (MIC)
Summary of the method: as §1

[21] = tested on: S. aureus 209P JC-1; assay: MIC, agar plate dilution method; type: cell-based; details: Staphylococcus aureus; S. aureus 209P JC-1; 37° C., 20 hours; read-out: Antimicrobial activity (MIC)
Summary of the method: as §1

[22] = tested on: M. pneumoniae Numata; assay: MIC, agar plate dilution method; type: cell-based; details: Mycoplasmoides pneumoniae, 20 h, read-out: Antimicrobial activity (MIC)
Summary of the method: as §1

[23] = tested on: S. aureus MS15009/pMS98; assay: MIC, agar plate dilution method; type: cell-based; details: Staphylococcus aureus, MS15009/PMS98, 20 h, read-out: Antimicrobial activity (MIC)
Summary of the method: (§3)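 Using blood-supplemented (5% horse) Sensitivity disk agar, we inoculated 5 μl spots of ~10^6 CFU/ml cultures and scored MIC after incubating 20 hours at 37° C. Broth seed cultures served most strains; Branhamella came from blood agar.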

[24] = tested on: S. aureus MS15009/pMS99; assay: MIC, agar plate dilution method; type: cell-based; details: Staphylococcus aureus, MS15009/PMS99, 20 h, read-out: Antimicrobial activity (MIC)
Summary of the method: as §3

[25] = tested on: S. aureus MS15026; assay: MIC, agar plate dilution method; type: cell-based; details: Staphylococcus aureus, 37° C., 20 hours, read-out: Antimicrobial activity (MIC)
Summary of the method: as §1

[26] = tested on: S. aureus M133; assay: MIC, agar plate dilution method; type: cell-based; details: Staphylococcus aureus, 37° C., 20 hours, read-out: Antimicrobial activity (MIC)
Summary of the method: as §1

[27] = tested on: K. pneumoniae PC1602; assay: MIC, agar plate dilution method; type: cell-based; details: Klebsiella pneumoniae, 37° C., 20 hours, read-out: Antimicrobial activity (MIC)
Summary of the method: as §1

[28] = tested on: M. pneumoniae FH; assay: MIC, agar plate dilution method; type: cell-based; details: Mycoplasmoides pneumoniae, 20 h, read-out: Antimicrobial activity (MIC)
Summary of the method: as §1

[29] = tested on: M. luteus ATCC9341; assay: MIC, agar plate dilution method; type: cell-based; details: Micrococcus luteus; M. luteus ATCC9341; 37° C., 20 hours; read-out: Antimicrobial activity (MIC)
Summary of the method: as §1

[30] = tested on: M. pneumoniae FH-P24; assay: MIC, agar plate dilution method; type: cell-based; details: Mycoplasmoides pneumoniae, FHP24, 20 h, read-out: Antimicrobial activity (MIC)
Summary of the method: as §3

[31] = recovery in urine after oral administration to mice, bioassay; type: in vivo
Method: Subsequently, 200 mg/kg of the compound (3) was orally administered to three mice in the same manner as described above.
The three mice were put in a metabolic cage MM type (Sugiyamagen Company, Tokyo, Japan) and urine was collected 4 and 24 hours after the administration of the test compound. The collected urine was filtered through a filter having a pore size of 0.45 μm (Millipore) and was mixed with an equivalent volume of 50% CH3CN-50 mM phosphate (1:1 by volume) buffer (pH 6.5) to serve as a urine sample. The bioassay was carried out in the same manner as described above to determine the concentration of the test compound in the urine sample. The recovering in the urine was calculated according to the following equation. [formula]

**Q.** Which “maximum concentration in serum compared with marketed 16-membered macrolide antibiotics” value [1] does the source give for `CCC(=O)O[C@@H]1CC(=O)O[C@H](C)C/C=C/C=C/C(=O)[C@H](C)C[C@H](CC=O)[C@H](O[C@@H]2O[C@H](C)[C@@H](O[C@H]3C[C@@](C)(OC)[C@@H](OCCC(C)C)[C@H](C)O3)[C@H](N(C)C)[C@H]2O)[C@H]1OC` [4"-O-depropionyl-4"-O-isoamyl-3"-O-methylmidecamycin A3] here?
**A.** clearly improved

**Q.** What about the “recovery in urine compared with marketed 16-membered macrolide antibiotics” value [1] of the same compound?
**A.** clearly improved

**Q.** And the “attack of the mycarose moiety by esterase” value [2]?
**A.** scarcely attacked by esterase

**Q.** And the “antimicrobial activity compared with MOM” value [3]?
**A.** enhanced antimicrobial activity

**Q.** Which anti-Mycoplasma activity [4] does the source give for `CCC(=O)O[C@@H]1CC(=O)O[C@H](C)C/C=C/C=C/[C@H](O)[C@H](C)C[C@H](CC=O)[C@H](O[C@@H]2O[C@H](C)[C@@H](O[C@H]3C[C@@](C)(OC)[C@@H](OCCC(C)C)[C@H](C)O3)[C@H](N(C)C)[C@H]2O)[C@H]1OC` [(3), 4"-O-depropionyl-4"-O-isoamyl-3"-O-methylmidecamycin A1] here?
**A.** practically effective anti-Mycoplasma activity

**Q.** What about the “degree of loss of the antimicrobial activity in the plasma compared with MOM” value [5] of the same compound?
**A.** lower than that of MOM

**Q.** And the “pharmacokinetics in mice (in words)” value [6]?
**A.** excellent pharmacokinetics

**Q.** What about the Cmax ([6]; mouse, serum, 200 mg/kg, M. luteus bioassay, read-out: maximum concentration in the serum) of the same compound?
**A.** 11300 ng/mL

**Q.** And the “maximum concentration in the serum, comparison in words” value ([6]; versus clarythromycin (CAM) or other 16-membered macrolides)?
**A.** comparable to that of clarythromycin (CAM); also recorded: considered the highest one among 16-membered macrolide compounds having a free hydroxyl group at the 9-position

**Q.** And the extent of metabolism [7]?
**A.** hardly metabolized

**Q.** And the “antimicrobial activities compared with MDM” value [8]?
**A.** comparable to, or even exceeding, that of MDM

**Q.** What about the “antimicrobial activities on Gram-positive bacteria and Mycoplasma” value [8] of the same compound?
**A.** strong antimicrobial activities

**Q.** What about the MIC [9] of the same compound?
**A.** > 100 µg/mL

**Q.** And the MIC [10]?
**A.** 0.05 µg/mL (≈ 0.0594 µM)

**Q.** What about the MIC [11] of the same compound?
**A.** 0.1 µg/mL (≈ 0.119 µM)

**Q.** What about the MIC [12] of the same compound?
**A.** 0.78 µg/mL (≈ 0.926 µM)

**Q.** And the MIC [13]?
**A.** 0.2 µg/mL (≈ 0.238 µM)

**Q.** What about the MIC [14] of the same compound?
**A.** 1.56 µg/mL (≈ 1.85 µM)

**Q.** And the MIC [15]?
**A.** > 100 µg/mL

**Q.** And the MIC [16]?
**A.** 1.56 µg/mL (≈ 1.85 µM)

**Q.** And the MIC [17]?
**A.** 3.13 µg/mL (≈ 3.72 µM)

**Q.** What about the MIC [18] of the same compound?
**A.** 6.25 µg/mL (≈ 7.42 µM)

**Q.** What about the MIC [19] of the same compound?
**A.** 0.1 µg/mL (≈ 0.119 µM)

**Q.** What about the MIC [20] of the same compound?
**A.** 0.78 µg/mL (≈ 0.926 µM)

**Q.** And the MIC [21]?
**A.** 0.2 µg/mL (≈ 0.238 µM)

**Q.** And the MIC [22]?
**A.** 0.025 µg/mL (≈ 0.0297 µM)

**Q.** And the MIC [23]?
**A.** 0.78 µg/mL (≈ 0.926 µM)

**Q.** And the MIC [24]?
**A.** > 100 µg/mL

**Q.** And the MIC [25]?
**A.** > 100 µg/mL

**Q.** What about the MIC [26] of the same compound?
**A.** 0.78 µg/mL (≈ 0.926 µM)

**Q.** And the MIC [27]?
**A.** > 100 µg/mL

**Q.** And the MIC [28]?
**A.** 1.56 µg/mL (≈ 1.85 µM)

**Q.** And the MIC [29]?
**A.** 0.05 µg/mL (≈ 0.0594 µM)

**Q.** And the MIC [30]?
**A.** 0.025 µg/mL (≈ 0.0297 µM)

**Q.** What about the “stability in the living mouse body (sustaining the antimicrobial activity)” value [31] of the same compound?
**A.** highly stable

**Q.** And the “recovery in the urine compared with CAM” value ([31]; 200 mg/kg oral)?
**A.** slightly lower than that of CAM

**Q.** What about the dose excreted at 24 h ([31]; mouse, 200 mg/kg oral (compound (3)), urine 4 and 24 hours) of the same compound?
**A.** 20%
